Results reported in PMC4412663, “Pathway for Biodegrading Microcystin-YR by Sphingopyxis sp. USTB-05” (PLoS ONE, 2015).

Tests used:
Sphingopyxis sp. USTB-05 = settings: cited from earlier work
[1] = system: crude enzymes (CEs) of Sphingopyxis sp. USTB-05; experiment: Enzymatic biodegradation by crude enzymes (CEs) of Sphingopyxis sp. USTB-05; assay type: in vitro ADME
Experimental: At logarithmic growth phase of the third day, the culture solution of Sphingopyxis sp. USTB-05 was centrifuged at 8,000 r/min for 20 min, and then the supernatant was decanted. The pelleted cells were washed three times with 50 mmol/L phosphate buffer solution (PBS, pH 7.0). The harvested cells were resuspended in 20 mL PBS and disrupted using an ultrasonic disruptor with an output power of 600 W for 15 min at 4°C. The cell debris was removed by centrifugation at 12,000 r/min for 30 min. The supernatant was collected, and after handling by 3500 MWCO dialysis bag small molecules such as Tyr was removed, it was used as CEs in the enzymatic biodegradation of MC-YR and its protein profile was determined using sodium dodecyl sulfate-polyacrylamide gel electrophoresis (SDS-PAGE) on 12% polyacrylamide gel. […].
The total biodegradation reaction volume was 5 mL containing 14.8 mg/L MC-YR and 103.6 mg/L protein in PBS in a 10 mL centrifuge tube. The reaction was at 30°C with the shake rate of 200 r/min. […]
MC-YR and its enzymatic biodegradation products were firstly measured using a HPLC system (Shimadzu LC-10ATVP, Shimadzu Co., Ltd., Japan) with a ultraviolet (UV) Diode Array Detector at 238 nm and 230 nm using a Agilent TC-C18 column (4.6 mm×250 mm) (Agilent, 1200 series, USA). […]

[2] = system: crude enzymes (CEs) of Sphingopyxis sp. USTB-05; settings: cited from earlier work

For microcystin-RR [MC-RR], the “time to complete biodegradation by Sphingopyxis sp. USTB-05” value (Sphingopyxis sp. USTB-05) is listed as at most 36 h.

For microcystin-YR [MC-YR], the “average biodegradation rate of MC-YR” value [1] was 1.5 mg/L per hour and the “time to complete removal of MC-YR by CEs” value ([1]; pH 7) was at most 10 h.

In the case of microcystin-LR [MC-LR], the “time to total removal by CEs of USTB-05” value [2] is listed as at most 10 h and the “time to total removal by USTB-05” value (Sphingopyxis sp. USTB-05) is listed as at most 20 h.
